Measurements taken from US20050239718A1, “Use of hederagenin 3-O-alpha-L-rhamnopyranosyl((1-2)-[betha-D-glucopyranosyl(1-4)]-alpha-L-arabinopyranoside or an extract from pulsatillae radix containing the same as a therapeutic agent for solid tumors” (priority 2002, published 2005).

Experiments:
LLC cells = assay: Antitumor activity on BDF1 mice transplanted with LLC cells; assay type: in vivo, mouse; settings: for Inhibition rate of tumor growth (%): i.p., WT 280, SPX1 70, SPX2 171, SPX3 30.5, SPX4 8.1, SB365 6.4, adriamycin 0.5 mg/kg
Description: The mouse species used in this experiment was BDF1, and healthy male mice with the body weight of […] were used. These animals were supplied with water and foods ad libitum at a place of controlled temperature in the range of 2324° C., and were bred with an antibiotic-free mouse feed. LLC cells were subcutaneously cultured in C57BL/6 mice for 14 days. A LLC cell-containing tissue was taken and thereto was added sterilized cold physiological saline water (5 ml/g tissue) to prepare a cell suspension. The cell suspension of 0.2 ml was subcutaneously transplanted to the groin region of BDF1 mouse.
From 24 hours after transplantation, the above mice were divided into several groupsconsisting of 5 mice. Then, samples, fractions WT and SPX fractions, and SB365, were dissolved in physiological saline, and were injected intraperitoneally at each concentration of 280 mg/kg (WT), 70 mg/kg SPX1), 171 mg/kg (SPX2), 30.5 mg/kg (SPX3), 8.1 mg/kg (SPX4), and 6.4 mg/kg (SB365). To the negative control group was injected only the physiological saline, and to the positive control group was injected adriamycin (0.5 mg/kg). The injection was scheduled from 24 hours after tumor transplantation to administer the samples successively once a day for 7 days, and stopped for one day, and then, was carried out for 6 more consecutive days.
In order to evaluate toxicity of SB365 on mice, experimental mice were weighed twice a week. Antitumor activity was calculated after measuring tumor volume of the control and test groups on 14th and 15th day after sample administration as follows: • Tumor volume (mm^3)=length (mm)×width^2 (mm^2)/2 • Inhibition rate of tumor growth (%)=(C−T)×100/C • (C: average tumor volume in the control group, T: average tumor volume in the test group)

NCI-H23 cells = assay: Antitumor activity on nude mice transplanted with NCI-H23 cells; assay type: in vivo, mouse; settings: for Inhibition rate of tumor growth (%) on NCI-H23: 16th day after tumor cells transplantation
Description: Female nude mice of the age of 5 weeks weighing 16˜25 g obtained from Harlan Co. (USA) were used as experimental animals in this experiment. The mice were used after acclimation for 1 week in an aseptic animal room. The animal room maintained the temperature of 22±2° C., the humidity of 55±5%, and the light and darkness cycle of 12 hours, which was automatically controlled. Solid feed for experimental animals was radiosterilized, and drinking water was sterilized in an autoclave. The animals were supplied with feed and drinking water ad libitum. A human tumor cell line provided by National Cancer Institute (NCI), USA, and preserved in the Korean Research Institute of Bioscience and Biotechnology (KRIBB), Korea, was used. Lung tumor cells, NCI-H23 cells, among the human tumor cells, were transplanted to the nude mice. The tumor cells of 3×10^7 cells/ml were subcutaneously transplanted to the mice at a volume of 0.3 ml/20 g body weight. The samples were intraperitoneally injected to the mice every day for 13 days, that is, from 1 day to 14th day except 8th day after tumor cells transplantation. The size of tumor formed during the injection was measured in each animal, and any change in its body weight was also measured. On 16th day after tumor cells transplantation, the nude mice were sacrificed, and the tumor was separated and weighed. To the positive control group was intraperitoneally injected adiamycin of 0.5 mg/kg body weight on 1st, 5th, 9th, and 14th day.

KB cells = settings: by inhibition of DNA polymerase; cited from earlier work
[1] = 14th day after transplantation of tumor cells
[2] = 15th day after transplantation of tumor cells

Compound	Inhibition rate of tumor growth (%) (LLC cells; [1])	Inhibition rate of tumor growth (%) (LLC cells; [2])	Inhibition rate of tumor growth (%) on NCI-H23 (NCI-H23 cells; 0.5 mg/kg i.p. on 1st, 5th, 9th, 14th day) [%]	Antitumor activity (in words) (LLC cells; BDF1 mice transplanted with LLC cells)	Inhibition rate of tumor growth (LLC cells; day not stated) [%]	Inhibition rate of tumor growth (%) on NCI-H23 (NCI-H23 cells; 1.6 mg/kg i.p.) [%]	Inhibition rate of tumor growth (%) on NCI-H23 (NCI-H23 cells; 3.2 mg/kg i.p.) [%]	Inhibition rate of tumor growth (%) on NCI-H23 (NCI-H23 cells; 6.4 mg/kg i.p.) [%]	Antitumor activity (in words) (NCI-H23 cells; nude mice transplanted with NCI-H23 cells)	Cytotoxicity (in words) (KB cells)
COc1cccc2c1C(=O)c1c(O)c3c(c(O)c1C2=O)C[C@@](O)(C(=O)CO)C[C@@H]3O[C@H]1C[C@H](N)[C@H](O)[C@H](C)O1 [Adriamycin, reference compound]	60	64	61.5							
CC1OC(OC2C(O[C@H]3CC[C@@]4(C)C(CC[C@]5(C)C4CC=C4C6CC(C)(C)CC[C@]6(C(=O)O)CC[C@]45C)[C@]3(C)CO)OCC(OC3OC(CO)C(O)C(O)C3O)C2O)C(O)C(O)C1O (stereo partly drawn) [SB365, hederagenin 3-O-α-L-rhamnopyranosyl(1→2)-[β-D-glucopyranosyl(1→4)]-α-L-arabinopyranoside]	82	79		higher antitumor activity	81	40.1	52.3	82.1	higher antitumor activity	
O=C1C=C[C@@H](COC2OC(CO)C(O)C(O)C2O)O1 (stereo partly drawn) [ranunculin, Ranunculin]										has cytotoxicity
